Measurements taken from the Deep4Chem optical property database.
Several values for one entry are separate records, joined by “and”; a condition that tells them apart may be missing. Equal values may be shown once. Each block holds one compound with its values, some of them ahead of it.

Assay: photoluminescence quantum yield (fraction); solvent given as SMILES
[1] = in c1ccc2c(c1)c1ccccc1n2-c1ccc(-c2ccc(-n3c4ccccc4c4ccccc43)cc2)cc1

SMILES: Fc1ccc(N(c2ccccc2)c2ccc3ccc4c(N(c5ccccc5)c5ccc(F)cc5)ccc5ccc2c3c54)cc1
photoluminescence quantum yield (in ClCCl): 0.8

SMILES: COc1ccc(C2=C(c3ccc(OC)cc3)C(C)(C)c3ccc4ccccc4c32)cc1
photoluminescence quantum yield (in C1CCCCC1): 0.11

SMILES: CCCCCn1c2cc(/C=C/c3ccc(N(c4ccccc4)c4ccccc4)cc3)ccc2c2ccc(/C=C/c3ccc(N(c4ccccc4)c4ccccc4)cc3)cc21
photoluminescence quantum yield (in Cc1ccccc1): 0.81

SMILES: CN(C)c1ccc(C2=Cc3cccc[n+]3[B-](F)(F)O2)cc1
photoluminescence quantum yield (in C1CCOC1): 0.684 | photoluminescence quantum yield (in C1COCCO1): 0.794 | photoluminescence quantum yield (in CC1CCCCC1): 0.519 | photoluminescence quantum yield (in CC#N): 0.517 | photoluminescence quantum yield (in CCOC(C)=O): 0.699 | photoluminescence quantum yield (in CCOCC): 0.868 | photoluminescence quantum yield (in CN(C)C=O): 0.382 | photoluminescence quantum yield (in CO): 0.454 | photoluminescence quantum yield (in COC(C)=O): 0.569 | photoluminescence quantum yield (in ClC(Cl)Cl): 0.705

SMILES: NNC(=O)NNN1C(=O)c2cc(S(=O)(=O)[O-])cc3c(N)c(S(=O)(=O)[O-])cc(c23)C1=O
photoluminescence quantum yield (in C1COCCO1): 0.06 | photoluminescence quantum yield (in CC#N): 0.49 | photoluminescence quantum yield (in CC(C)=O): 0.29 | photoluminescence quantum yield (in CC(C)O): 0.62 | photoluminescence quantum yield (in CCCCCCCCO): 0.75 | photoluminescence quantum yield (in CCO): 0.54 | photoluminescence quantum yield (in CCOC(C)=O): 0.03 | photoluminescence quantum yield (in CO): 0.25 | photoluminescence quantum yield (in CS(C)=O): 0.59 | photoluminescence quantum yield (in O): 0.21 | photoluminescence quantum yield (in OCCO): 0.5 | photoluminescence quantum yield (in c1ccncc1): 0.26

SMILES: FC(F)(F)c1ccccc1B1c2ccccc2N(c2ccccc2)c2ccccc21
photoluminescence quantum yield (in ClCCl): 0.79

SMILES: CCN(CC)c1ccc(-c2ccc(-c3nc4ccccc4c(=O)[nH]3)s2)cc1
photoluminescence quantum yield (in CC#N): 0.28 | photoluminescence quantum yield (in Cc1ccccc1): 0.71

SMILES: COc1ccc(/C=C/c2nc3c4ccccc4c4ccccc4c3o2)cc1
photoluminescence quantum yield (in CC#N): 0.35

SMILES: CCCCCCc1ccc(-n2c3[n+](c4c5ccccc5c5ccccc5c42)[B-](C)(C)c2ccc4ccccc4c2-3)cc1
photoluminescence quantum yield (in C1CCOC1): 0.11 | photoluminescence quantum yield (in CC#N): 0.07 | photoluminescence quantum yield (in Cc1ccccc1): 0.16 | photoluminescence quantum yield (in ClCCl): 0.08

SMILES: Cc1nc2cc3c4c(cccc4c2o1)C(=O)OC3=O
photoluminescence quantum yield (in CCO): 0.1

SMILES: CCCc1ccc(C#Cc2cc(C#Cc3ccc(N(C)C)cc3)c3ccc4c(C#Cc5ccc(N(C)C)cc5)cc(C#Cc5ccc(N(C)C)cc5)c5ccc2c3c54)cc1
photoluminescence quantum yield (in ClCCl): 0.47

SMILES: [O-][n+]1c(/C=C/c2ccccc2)nc(Nc2ccccc2)c2c1CCCC2
photoluminescence quantum yield (in ClCCl): 0.16

SMILES: O=S(=O)(c1ccc(-c2ccc(-c3nc4c5ccccc5c5ccccc5c4n3-c3ccccc3)cc2)cc1)c1ccc(-c2ccc(-c3nc4c5ccccc5c5ccccc5c4n3-c3ccccc3)cc2)cc1
photoluminescence quantum yield (in C1CCOC1): 0.847 | photoluminescence quantum yield (in CC#N): 0.579 | photoluminescence quantum yield (in CC(C)=O): 0.779 | photoluminescence quantum yield (in CC(C)OC(C)C): 0.81 | photoluminescence quantum yield (in CCCCCC): 0.676 | photoluminescence quantum yield (in CCCCOCCCC): 0.85 | photoluminescence quantum yield (in CCN(CC)CC): 0.102 | photoluminescence quantum yield (in CCOC(C)=O): 0.89 | photoluminescence quantum yield (in CCOCC): 0.992 | photoluminescence quantum yield (in CN(C)C=O): 0.775 | photoluminescence quantum yield (in ClC(Cl)Cl): 1 | photoluminescence quantum yield (in ClCCl): 0.824 | photoluminescence quantum yield [1]: 0.72

SMILES: Cc1cccc2c1nc1c(=O)n(C)c(=O)nc-1n2C
photoluminescence quantum yield (in CC#N): 0.14

SMILES: COc1cc(/C=C/c2nc(N3CCOCC3)c3c([n+]2[O-])CCCC3)cc(OC)c1OC
photoluminescence quantum yield (in ClCCl): 0.23

SMILES: N#Cc1ccc2nc3c(=O)[nH]c(=O)[nH]c3nc2c1
photoluminescence quantum yield (in ClCCCl): 0.016

SMILES: Clc1ccc(/C=C/c2nc3ccccc3s2)cc1
photoluminescence quantum yield (in C1CCCCC1): 0.04 | photoluminescence quantum yield (in CO): 0.01

SMILES: COC(=O)C(NC(=O)OC(C)(C)C)c1ccc2oc(-c3cc(C(F)(F)F)cc(C(F)(F)F)c3)nc2c1 (centres undefined)
photoluminescence quantum yield (in CC1CCCCC1): 0.54 | photoluminescence quantum yield (in CC#N): 0.46 | photoluminescence quantum yield (in CO): 0.44

SMILES: COc1ccc2cc3cccc[n+]3cc2c1
photoluminescence quantum yield (in O): 0.2

SMILES: CSc1ccc(/C=C/c2ccncn2)cc1
photoluminescence quantum yield (in ClCCl): 0.01

SMILES: c1ccc2c(c1)Sc1ccc(-n3c4ccccc4c4ccccc43)cc1S2
photoluminescence quantum yield (in CC1CCCCC1): 0.04 | photoluminescence quantum yield (in c1cc(-c2cccc(-n3c4ccccc4c4ccccc43)c2)cc(-n2c3ccccc3c3ccccc32)c1): 0.1

SMILES: Oc1ccc(-c2ccco2)cc1-c1nc2ccccc2s1
photoluminescence quantum yield (in CCO): 0.0588 | photoluminescence quantum yield (in ClCCl): 0.0292 | photoluminescence quantum yield (in O): 0.07

SMILES: Cn1c2nc(=O)[nH]c(=O)c-2nc2ccccc21
photoluminescence quantum yield (in CC1CCCO1): 0.3

SMILES: Cc1cc(C)c(B(c2ccc(N3c4ccccc4C(C)(C)c4ccccc43)cc2)c2c(C)cc(C)cc2C)c(C)c1
photoluminescence quantum yield (in Cc1ccccc1): 0.89

SMILES: CCC1(CC)c2ccccc2-c2c1c1c(c3c2C(CC)(CC)c2cc(B(c4c(C)cc(C)cc4C)c4c(C)cc(C)cc4C)ccc2-3)C(CC)(CC)c2cc(B(c3c(C)cc(C)cc3C)c3c(C)cc(C)cc3C)ccc2-1
photoluminescence quantum yield (in C1CCOC1): 0.4

SMILES: CC(=O)c1ccc(-c2nc3ccc(N(C)C)cc3s2)cc1
photoluminescence quantum yield (in C1CCCCC1): 0.88 | photoluminescence quantum yield (in CC#N): 0.88 | photoluminescence quantum yield (in CO): 0.041 | photoluminescence quantum yield (in ClC(Cl)Cl): 0.99

SMILES: Cc1ccc(/C=C/c2nc(-c3ccc([N+](=O)[O-])cc3)[nH]c2/C=C/c2ccc(C)cc2)cc1
photoluminescence quantum yield (in ClCCl): 0

SMILES: COc1ccc2c3c(c4ccc(OC)cc4c2c1)C1(c2ccccc2-c2ccccc21)c1ccccc1-3
photoluminescence quantum yield (in C1CCCCC1): 0.21

SMILES: COc1cc(OC)cc(C2=C3C(C)=C(I)C(C)=[N+]3[B-](F)(F)n3c(/C=C/c4ccsc4)c(I)c(C)c32)c1
photoluminescence quantum yield (in C1CCOC1): 0.3 | photoluminescence quantum yield (in CS(C)=O): 0.15 | photoluminescence quantum yield (in ClCCl): 0.4

SMILES: COc1ccc2cc(C3=[N+]4C(=Nc5c(-c6ccccc6)cc(-c6ccc7cc(OC)ccc7c6)n5[B-]4(F)F)C(c4ccccc4)=C3)ccc2c1
photoluminescence quantum yield (in ClC(Cl)Cl): 0.33 | photoluminescence quantum yield (in ClCCl): 0.33

SMILES: CCCCN1C(=O)c2cccc3c(C#CC#Cc4ccc5c6c(cccc46)C(=O)N(CCCC)C5=O)ccc(c23)C1=O
photoluminescence quantum yield (in ClCCl): 0.81

SMILES: CCCCCCCCC1(CCCCCCCC)c2cc(-c3ccc(C#N)cc3)ccc2-c2ccc(-c3ccc(C#N)cc3)cc21
photoluminescence quantum yield (in ClC(Cl)Cl): 0.95

SMILES: c1cc2c3c(c1)-c1cccc4ccn(c14)B3n1ccc3cccc-2c31
photoluminescence quantum yield (in C1CCOC1): 0.65

SMILES: CCc1c(C)c2n(c1C)[B-](F)(F)[N+]1=C(NCc3ccc(OC)cc3)C(SC#N)=CC1=C2C
photoluminescence quantum yield (in CC#N): 0.83 | photoluminescence quantum yield (in CCCCCC): 0.91 | photoluminescence quantum yield (in CCOC(C)=O): 0.9 | photoluminescence quantum yield (in CO): 0.85 | photoluminescence quantum yield (in ClCCl): 0.93

SMILES: N#Cc1ccc(/C=C/C=C/C2=NC3C(=O)NC(N)=NC3N2[C@H]2C[C@H](O)[C@@H](CO)O2)cc1 (some centres undefined)
photoluminescence quantum yield (in C1COCCO1): 0.75 | photoluminescence quantum yield (in CC#N): 0.47 | photoluminescence quantum yield (in CO): 0.32

SMILES: CCCN1c2ccccc2Sc2cc(/C=C\c3cc(=O)oc4cc(NC(=O)OCC)ccc34)ccc21
photoluminescence quantum yield (in ClC(Cl)Cl): 0.62

SMILES: N#Cc1c(N2c3ccccc3C(c3ccccc3)(c3ccccc3)c3ccccc32)cccc1N1c2ccccc2C(c2ccccc2)(c2ccccc2)c2ccccc21
photoluminescence quantum yield (in Cc1ccccc1): 0.67

SMILES: N#Cc1c(-n2c3ccccc3c3ccccc32)c(C#N)c(-n2c3ccccc3c3ccccc32)c(-n2c3ccccc3c3ccccc32)c1-n1c2ccccc2c2ccccc21
photoluminescence quantum yield (in Cc1ccccc1): 0.938 and 0.88 | photoluminescence quantum yield [1]: 0.83

SMILES: C[n+]1ccn(CCCCc2ccc3c(c2)c2ccccc2n3-c2cc(C#N)c(C#N)cc2F)c1
photoluminescence quantum yield (in CC#N): 0.029

SMILES: CCCCCCCCCCCCN1C(=O)c2c(c3ccc4cc(-c5ccc(OC)cc5)c(OC)cc4c3c3c2ccc2cc(-c4ccc(OC)cc4)c(OC)cc23)C1=O
photoluminescence quantum yield (in ClCCl): 0.196

SMILES: COC(=O)c1[nH]c(-c2ccccc2)c2nnc3ccc(OC)cc3c12
photoluminescence quantum yield (in ClCCl): 0.0207

More lines, now with the values ahead:

photoluminescence quantum yield (in C1CCCCC1): 0.0012
SMILES: Brc1c(Br)c2ccc3c(Br)c(Br)c4ccc5ccc1c1c5c4c3c21

photoluminescence quantum yield (in CCO): 0.36
SMILES: C#Cc1ccc2cc(/C=C/C(=O)OCC)c(=O)oc2c1

photoluminescence quantum yield (in ClCCl): 0.3
SMILES: COc1ccc(-c2cc(-c3ccc(C#N)cc3)nn2C)cc1

photoluminescence quantum yield (in ClC(Cl)Cl): 0.26
SMILES: O=C1[C@@H]2[C@H](C(=O)N1c1cccc3cc4ccccc4cc13)[C@@H]1C=C[C@H]2C1

photoluminescence quantum yield (in ClCCl): 0.34
SMILES: CCCCN(CCCC)c1ccc(C#Cc2cc(C#Cc3ccc(N(CCCC)CCCC)cc3)c(C#Cc3cc(C(F)(F)F)cc(C(F)(F)F)c3)cc2C#Cc2cc(C(F)(F)F)cc(C(F)(F)F)c2)cc1

photoluminescence quantum yield (in ClCCl): 0.8
SMILES: CC(C)(C)c1ccc2c(c1)c1cc(C(C)(C)C)ccc1n2-c1ccc(C#Cc2ccccc2)cc1

photoluminescence quantum yield (in C1CCOC1): 0.611 | photoluminescence quantum yield (in CCCCCC): 0.564 | photoluminescence quantum yield (in CCO): 0.597 | photoluminescence quantum yield (in CS(C)=O): 0.585
SMILES: CCCCOc1ccc2cc(-c3ccc(C)cc3)c(=O)oc2c1

photoluminescence quantum yield (in ClCCl): 0.208
SMILES: CCCCCCOc1cc(C=O)c(OCCCCCC)cc1C=O

photoluminescence quantum yield (in ClC(Cl)Cl): 0.28
SMILES: F[B-]1(F)n2cccc2C(c2ccccc2)=C2C=CC(c3cccc(OC4=[N+]5C(=C(c6ccccc6)c6cc(Br)c(Br)n6[B-]5(F)F)C=C4Br)c3)=[N+]21

photoluminescence quantum yield (in CO): 0.09
SMILES: COc1ccc(-c2c(OC)ccc3nnn(C[C@H](N)C(=O)O)c23)cc1

photoluminescence quantum yield (in ClCCl): 0.114
SMILES: COC(=O)c1[nH]c(-c2ccc(Br)cc2)c2nnc3ccc(OC)cc3c12

photoluminescence quantum yield (in ClC(Cl)Cl): 0.47
SMILES: F[B-]1(F)n2c(cc(Br)c2Br)C(c2ccccc2)=C2C=C(Br)C(c3ccc[nH]3)=[N+]21

photoluminescence quantum yield (in ClCCl): 0.2
SMILES: CCc1ccc(C2=[N+]3C(=Cc4c5ccc(OC)cc5c(-c5ccc(CC)s5)n4[B-]3(F)F)c3ccc(OC)cc32)s1

photoluminescence quantum yield (in ClC(Cl)Cl): 0.03 and 0.07
SMILES: C(#Cc1cccs1)C(C#Cc1cccs1)=Cc1ccc(C=C(C#Cc2cccs2)C#Cc2cccs2)s1

photoluminescence quantum yield (in ClCCl): 0.04
SMILES: COc1ccc(/C=C/C2=C3CCc4ccccc4C3=[O+][B-](F)(F)O2)cc1

photoluminescence quantum yield (in CC#N): 0.3
SMILES: Oc1ccc2ccccc2c1/C=N/c1ccccc1/N=C/c1c(O)ccc2ccccc12

photoluminescence quantum yield (in ClCCl): 0.3
SMILES: c1ccc(N(c2ccccc2)c2ccc(-c3nc(-c4ccc(N(c5ccccc5)c5ccccc5)cc4)c4ccccc4n3)cc2)cc1

photoluminescence quantum yield (in CCCCCC): 0.466 | photoluminescence quantum yield (in CO): 0.199 | photoluminescence quantum yield (in ClCCl): 0.646
SMILES: Nc1ccc(C#Cc2ccc3ccc4ccc(C#Cc5ccc(N)cc5)c5ccc2c3c45)cc1
